Laboratory results taken from paper PMC8607231, “Generation of KS-133 as a Novel Bicyclic Peptide with a Potent and Selective VIPR2 Antagonist Activity that Counteracts Cognitive Decline in a Mouse Model of Psychiatric Disorders” (Frontiers in Pharmacology, 2021).
Where a SMILES comes first, the peptide text is derived from it. Bridges are numbered along the chain shown (N, C = ends).

Tests used:
[1] = target: T1, human VIPR2 (Homo sapiens, UniProt P41587); assay: HitHunter cAMP assay, agonist mode; type: cell-based
T1 construct: host or cells: CHO-K1
T1 sequence (P41587 24-438): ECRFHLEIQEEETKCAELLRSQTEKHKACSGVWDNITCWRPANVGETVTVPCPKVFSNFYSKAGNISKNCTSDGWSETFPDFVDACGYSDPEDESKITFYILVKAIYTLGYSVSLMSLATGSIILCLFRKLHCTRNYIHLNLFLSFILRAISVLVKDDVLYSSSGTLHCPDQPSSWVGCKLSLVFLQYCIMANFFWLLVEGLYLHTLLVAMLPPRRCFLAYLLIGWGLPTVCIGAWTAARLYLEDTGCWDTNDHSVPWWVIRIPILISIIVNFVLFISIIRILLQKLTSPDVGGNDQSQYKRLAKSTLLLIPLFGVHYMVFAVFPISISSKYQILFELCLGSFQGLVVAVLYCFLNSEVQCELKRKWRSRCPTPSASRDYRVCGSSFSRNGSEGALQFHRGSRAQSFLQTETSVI
Method: Evaluation of antagonist activities of peptides against VIP-VIPR1, VIP-VIPR2, and PACAP-PAC1 signaling pathways and agonistic activity of KS-133 at VIPR2 was carried out by Eurofins DiscoverX (Fremont, CA, United States). Intracellular calcium mobilization was monitored using a calcium-sensitive dye loaded in CHO-K1 cells expressing human VIPR1 (ITEM 86-0030P-2243AN), VIPR2 (ITEM 86-0030P-2244AN), and PAC1 (ITEM 86-0030P-2066AN). The cells were preincubated with antagonistic peptides for 30 min at room temperature in the dark. After addition of the ligand at EC80, calcium mobilization was immediately monitored by FLIPR Tetra for 2 min. Cyclic AMP production in CHO-K1 cells expressing human VIPR2 was evaluated using HitHunter® cAMP assays (antagonist mode: ITEM 86-0007P-2362AN; agonist mode: ITEM 86-0007P-2362AG). […] Cells were lysed and the cAMP content of the cell lysate was determined by the β-galactosidase-based enzyme fragment complementation assay ([Eglen, 2002]). […]
FIGURE 3 Antagonistic/agonistic activities of peptides in the calcium influx and cAMP assays. […] In the calcium influx assay, after addition of ligand at EC80, calcium mobilization was monitored immediately (see details in the Methods section) (n = 4 wells for each treatment). […]
Next, antagonistic and agonistic activities of KS-133 at VIPR2 were evaluated by a cAMP assay. […]

[2] = system: mouse model of psychiatric disorders on the basis of early postnatal activation of VIPR2; assay: Novel object recognition test in mouse model of early postnatal activation of VIPR2; type: in vivo; details: KS-133 1 nmol/g s.c. simultaneously with Ro 25-1553 0.07 nmol/g, P1-14
Method: For behavioral experiments, all litters were randomly divided into Ro 25-1553- and PBS-treated groups. From P1 to P14, mice were injected s.c. once daily with Ro 25-1553 at a dose of 0.07 nmol/g ([Ago et al., 2015]). Mice treated with PBS from P1 to P14 were used as the control. KS-133 or the vehicle was simultaneously injected with Ro 25-1553 or PBS. Animals were weaned at P21 and divided by gender at P28. We used male mice exclusively to minimize any potential variability due to sex-specific effects on behavioral performance. All groups were derived from at least four different litters to preclude possible differences in individual maternal behaviors as a mitigating factor in any subsequent long-lasting changes induced in the offspring. […]
The novel object recognition test was carried out in accordance with previous reports ([Takuma et al., 2014]; [Hara et al., 2016]). […] The exploration time for each object in the retention session was measured with a stopwatch. […]
FIGURE 5 Effects of early postnatal treatment with Ro 25-1553 and KS-133 on recognition memory in the novel object recognition test. […] (B) Discrimination index (%) was calculated as the difference between novel and familiar object exploration times divided by the total time spent exploring the two objects. Results are expressed as the mean ± S.E.M. of 15–20 mice per group. **p < 0.01.

cAMP assay (nM) Agonistic activity VIPR2 ([1]; agonist mode, CHO-K1 cells): >5,000 nM | VIPR2 agonist activity ([1]; cAMP assay, at high concentration of 5 μM): did not exhibit VIPR2 agonist activity
Compound: CC[C@H](C)[C@H](NC(=O)[C@H](CC(C)C)NC(=O)[C@@H]1CC(=O)NCCCC[C@@H]2NC(=O)[C@@H]3CCCN3C(=O)[C@H](CC(C)C)NC(=O)[C@H](Cc3ccc(O)cc3)NC(=O)[C@@H]3CCCN3C(=O)[C@@H]3CCCN3C(=O)[C@@H](NC(C)=O)CSSC[C@H](NC(=O)[C@H](CC(C)C)NC(=O)[C@H](Cc3ccc(O)cc3)NC2=O)C(=O)N1)C(N)=O [KS-133, Ac-c[Cys-Pro-Pro-Tyr-Leu-Pro-c(Lys-Tyr-Leu-Cys]-Asp)-Leu-Ile-NH2] (Ac-CPPYLPKYLCDLI-NH2; disulfide 1-10; lactam 7-11)
Effect on Ro 25-1553-induced recognition memory deficit, novel object recognition test [2]: attenuated the decreases in the difference of time spent exploring each object and cognitive dysfunction
